Data published in patent US11136328B2, “3,3-difluoropiperidine carbamate heterocyclic compounds as NR2B NMDA receptor antagonists” (Rugen Holdings (Cayman) Limited, priority 2015, dated 2021).

What was measured:
hERG channel = hERG channel (Homo sapiens (Human), UniProt Q12809); experiment: hERG channel inhibition, whole cell patch clamp; format: cell-based; settings: 10 μM compound
Protocol: The assay was performed on hERG channel stably expressed in HEK293 cells. The cells were cultured at 37° C. in a humidified CO2 incubator in the growth medium consisting of DMEM, 10% fetal bovine serum and antibiotics. Prior to the assay, the cells were seeded onto a 12 mm PDL-coated glass coverslip and cultured in a 35 mm Petri dish. After 16 to 40 hr culture, the cover slip was transferred into the chamber of OctaFlow perfusion system (ALA Instrument) and under a constant flow of extracellular solution (140 mM NaCl, 4 mM KCl, 1 mM MgCl2, 2 mM CaCl2, 10 mM HEPES, 10 mM D-glucose, pH 7.35, osmolarity 290). Whole cell patch clamping was performed with a glass micropipette filled with intracellular solution (120 mM KCl, 1.75 mM MgCl2, 5.4 mM CaCl2, 10 mM HEPES, 10 mM EGTA, and 4 mM ATP-K2, PH 7.2, osmolarity 310). Giga-seal was maintained during the test. The voltage control and current measurement were carried out using Axon amplifier 700B, Digidata 1440A and CLAMPEX10 software (Molecular Devices). Whole-cell hERG currents were recorded following the Petroski protocol: the cell was held at −80 mV, and the voltage step jumped from −80 to 30 mV and stay for 2 sec with a 20 ms prepulse at −40 mV. After depolarization, the voltage was decreased to −40 mV and stay for 2 sec, and returned back to −80 mV. Test compound was applied by quartz capillary tubes tip (200 μm inner diameter), and the flow rate was controlled at 2-3 ml/min with OctaFlow perfusion system. Different concentrations of the compound were applied to the cells for 5 min and the hERG current was measured three times before, during and after compound treatment. The data were analyzed using Clampfit 10 software (Molecular Devices) to generate IC50 values.

CYP2D6 = CYP2D6 (Homo sapiens (Human), UniProt P10635); experiment: CYP P450 enzyme inhibition in pooled human liver microsomes; format: in vitro ADME; settings: 10 μM compound, pooled HLM
Chain of CYP2D6 (P10635 whole entry): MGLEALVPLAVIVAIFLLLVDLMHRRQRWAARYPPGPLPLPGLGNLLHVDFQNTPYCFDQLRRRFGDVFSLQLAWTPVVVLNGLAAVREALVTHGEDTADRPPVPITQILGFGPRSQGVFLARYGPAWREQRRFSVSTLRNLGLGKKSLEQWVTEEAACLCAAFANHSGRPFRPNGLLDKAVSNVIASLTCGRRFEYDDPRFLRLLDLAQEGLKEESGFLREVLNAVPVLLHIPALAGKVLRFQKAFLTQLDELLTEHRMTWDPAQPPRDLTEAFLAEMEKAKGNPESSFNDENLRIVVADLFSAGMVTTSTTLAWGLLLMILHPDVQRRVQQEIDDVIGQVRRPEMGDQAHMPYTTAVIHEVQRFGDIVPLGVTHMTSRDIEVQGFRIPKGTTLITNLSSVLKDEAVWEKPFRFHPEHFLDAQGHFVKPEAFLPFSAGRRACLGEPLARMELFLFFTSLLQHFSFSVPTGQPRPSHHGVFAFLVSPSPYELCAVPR
Protocol: Those CYP isoforms and their corresponding probe substrates are as follows: CYP1A2 (phenacetin, 30 μM), CYP2C9 (tolutamide, 100 μM), CYP2C19 (S-mephenytoin, 40 μM), CYP2D6 (dextromethorphan, 5 μM) and CYP3A4 (midazolam, 1 μM). All probe substrates were used at concentrations near or below their Kms. For experiment, a reaction mixture of test compound at 10 μM or in serial dilution, CYP probe substrate described above and 0.2 mg/mL pooled HLM in phosphate buffer, pH 7.4 in a final volume of 200 μL was pre-incubated at 37° C. for 10 minutes in triplicate. The reaction was initiated by addition of NADPH at final concentration of 1 mM. The reaction was terminated after 10 minutes (CYP1A2, CYP2D6 and CYP3A4) or 30 minutes (CYP2C9 and CYP2C19) by addition of 100 μL ice-cold acetonitrile with internal standard (IS). The samples were then centrifuged at 13,000 rpm and the supernatants were injected to LC-MS/MS (Agilent Technologies) to quantify the concentration of the specific metabolites of the probe substrates formed by individual CYP450 isoforms. The inhibition ratio is calculated as: (Mt−M0)/Mwater×100% in which Mt and M0 represent the concentrations of the specific probe substrate metabolite, which was formed by individual CYP450 isoform, at the beginning and end of the reaction in the presence of test compound; while Mwater represents the concentration of the specific metabolite at the end of the reaction in the absence of test compound. Test compound concentration-dependent response data experiments performed in triplicate.

rats [1] = experiment: Electroconvulsive Threshold Test (ECT); format: in vivo
Protocol: (§1) Test compound E1-8.2 was administered as the free base.
Rats were administered ECS (rectangular current: 0.6 ms pulse width, 1.5 s duration, 200 Hz) via earclip electrodes connected to a constant current shock generator (Ugo Basile: type 7801). Test compounds were administered by oral gavage (p.o.) 1 hour before the test at a dose volume of 5 mL/kg.
Treatment groups of 20 rats were exposed to ECS as follows: The first animal was exposed to 30 mA of ECS. […] (increases of 5 mA) until the first tonic convulsion was observed. Once the first tonic convulsion was observed, the intensity of ECS was decreased by 2 mA for the next animal and then decreased or increased by 2 mA from animal to animal depending on whether the previous animal convulsed or not. If the first animal did convulse (tonic convulsions) within 5 seconds, animal no 2 is exposed to 25 mA, etc. . . . (decreases of 5 mA) until the absence of tonic convulsions was observed. At this point, the intensity of ECS was increased by 2 mA for the next animal and then decreased or increased by 2 mA from animal to animal depending on whether the previous animal convulsed or not. The minimum current intensity applied is 5 mA and the maximum 95 mA. The first 5 animals serve to approach threshold current and were not included in the analysis. The results are presented as the mean current intensity administered to the final 15 animals of a group. The test was performed blind. A positive percent change indicates an anticonvulsant effect. A negative percent change indicates a proconvulsant effect. The test substance was evaluated at 4 doses, typically using 0.5% dimethylsulfoxide, 4% hydroxypropyl-b-cyclodextrin water as a vehicle, and administered p.o. 60 minutes before ECS, and compared with a vehicle control group. Diazepam (16 mg/kg p.o.), administered under the same experimental conditions, was used as reference substance. The experiment included 6 groups. Data with the test substance was analyzed by comparing treated groups with vehicle control using one-way ANOVA followed by Dunnett's t tests.

rats [2] = experiment: Pentylenetetrazole (PTZ) Seizure Test; format: in vivo; settings: 10 mg/kg p.o. 30 min before PTZ 100 mg/kg s.c.
Protocol: Rats, placed in individual macrolon cages (25×19×13 cm), were injected with pentylenetetrazole (PTZ) (100 mg/kg s.c.). The occurrence and latency of clonic and tonic convulsions and death were noted over a 30 minute period. 15 rats were studied per group. The test was performed blind.
as §1
Compounds were evaluated typically using 0.5% dimethylsulfoxide, 4% hydroxypropyl-b-cyclodextrin water as a vehicle at 1 or more doses (e.g., 1, 3 and 10 mg/kg), administered p.o. 30 minutes before PTZ, and compared with a vehicle control group. Diazepam (16 mg/kg p.o.), administered 60 minutes before PTZ, was used as reference substance. The experiment was performed over 2 separate sub-experiments with N=7 to 8 animals per group and per sub-experiment. Quantitative data (latencies) with the test substance was analyzed by comparing treated groups with vehicle control using Kruskal-Wallis test followed by Mann-Whitney U test. Quantitative data with the reference substance was analyzed using Mann-Whitney U test. Quantal data (frequencies) was analyzed by comparing treated groups with vehicle control using Fisher's Exact Probability tests (*=p<0.05; **=p<0.01; ***=p<0.001).

mice = experiment: Forced Swim Test in mice; format: in vivo
Text: (§2) The forced swim test (FST) also known at the behavioural despair test was used to evaluate antidepressant activity (Porsolt et al., 1977 Arch. Int. Pharmacodyn. 229: 327-336, Porsolt et al., 1977, Eur. J. Pharmacol. 47:379-391). Mice or rats that are forced to swim in a situation from which they cannot escape, rapidly become immobile. Drugs with antidepressant activity, such as imipramine, reduce the amount of time spent in the immobile state. Therefore, the amount of immobility time during a test conducted after drug administration represents a useful indicator of antidepressant activity (Lucki et al 2001 Psychopharmacology 155:315-322; Porsolt et al., 1977, Nature 266:730-732).
Mice were evaluated in a single swimming test session of 6 minutes. Mice were placed in a transparent plastic cylinder 24 cm high with a diameter of 13 cm containing 10 cm of water with ambient temperature control generally from 22±2° C. Mice were placed in the water for 6 minutes and the duration of immobility during the last 4 minutes was measured.
Animals were observed by a blinded observer. […] The amount of time each animal spent in the immobile state (and the latency to the first bout of immobility) was recorded and used for statistical analysis of compound effect. Group differences were evaluated by student's t-test (reference substance) or one-way ANOVA followed by post-hoc Dunnett's test (test substances). […]
Male mice (strain NLMN) weighing 25-35 g were used for testing. […] The mice were videotaped for 6 minutes, and the last 4 minutes of video were analyzed by a blinded observer off-line. […] The amount of time each animal spent in the immobile state was recorded and used for statistical analysis of compound effect. Group differences were evaluated by student's t-test or one-way ANOVA followed by post-hoc Dunnett's test.
Mice were individually placed in a cylinder (height=24 cm; diameter=13 cm) containing 10 cm water (22° C.) from which they cannot escape. The mice were placed in the water for 6 minutes and the duration of immobility during the last 4 minutes was measured. […]

rats [3] = experiment: Forced Swim Test in rats; format: in vivo, Wistar rats
Text: as §2
Male Wistar rats weighing 197-251 g were used for the rat test. Rats were evaluated according to a two-session procedure with a swimming session of 15 minutes on the first day of the experiment (Session 1) followed 24 hours later by a 5-minute swimming test (Session 2). […] Rats were placed in the water 24 h later for 5 minutes (Session 2) and the duration of immobility was measured.
Animals were observed by a blinded observer. […] The amount of time each animal spent in the immobile state (and the latency to the first bout of immobility) was recorded and used for statistical analysis of compound effect. […]

Chain of hERG channel (Q12809 whole entry): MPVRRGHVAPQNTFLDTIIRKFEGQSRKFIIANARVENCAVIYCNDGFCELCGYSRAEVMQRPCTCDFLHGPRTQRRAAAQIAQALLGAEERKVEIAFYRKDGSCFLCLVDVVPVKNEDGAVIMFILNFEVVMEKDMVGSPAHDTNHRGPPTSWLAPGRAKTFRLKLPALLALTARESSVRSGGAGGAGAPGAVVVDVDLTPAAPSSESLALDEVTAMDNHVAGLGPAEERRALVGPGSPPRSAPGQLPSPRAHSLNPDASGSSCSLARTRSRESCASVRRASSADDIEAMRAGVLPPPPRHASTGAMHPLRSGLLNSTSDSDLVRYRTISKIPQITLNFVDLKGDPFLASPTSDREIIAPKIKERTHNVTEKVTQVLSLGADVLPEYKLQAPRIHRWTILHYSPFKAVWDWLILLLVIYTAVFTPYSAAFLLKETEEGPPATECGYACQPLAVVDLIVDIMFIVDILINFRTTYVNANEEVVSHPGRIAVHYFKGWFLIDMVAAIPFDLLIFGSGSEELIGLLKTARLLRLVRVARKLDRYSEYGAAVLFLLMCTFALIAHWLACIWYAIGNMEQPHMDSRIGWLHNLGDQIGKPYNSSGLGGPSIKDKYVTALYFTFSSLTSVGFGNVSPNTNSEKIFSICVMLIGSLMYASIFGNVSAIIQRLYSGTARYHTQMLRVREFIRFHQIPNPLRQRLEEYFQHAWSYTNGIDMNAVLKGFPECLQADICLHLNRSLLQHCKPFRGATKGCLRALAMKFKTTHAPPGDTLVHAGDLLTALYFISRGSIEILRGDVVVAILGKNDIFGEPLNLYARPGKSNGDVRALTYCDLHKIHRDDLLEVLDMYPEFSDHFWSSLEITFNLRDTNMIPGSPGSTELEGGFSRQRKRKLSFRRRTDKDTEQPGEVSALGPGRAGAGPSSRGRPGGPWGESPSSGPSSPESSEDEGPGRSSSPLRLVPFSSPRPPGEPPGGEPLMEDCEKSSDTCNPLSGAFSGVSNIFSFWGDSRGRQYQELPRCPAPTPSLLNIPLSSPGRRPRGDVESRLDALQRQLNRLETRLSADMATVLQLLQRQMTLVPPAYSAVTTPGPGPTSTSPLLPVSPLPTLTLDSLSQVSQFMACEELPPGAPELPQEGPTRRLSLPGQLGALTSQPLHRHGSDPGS

SMILES: O=C(OCc1ccc(Cl)cc1)N1CC[C@H](CNc2nccn3cnnc23)C(F)(F)C1 [Compound E1-1.3, R-4-chlorobenzyl 4-(([1,2,4]triazolo[4,3-a]pyrazin-8-ylamino)methyl)-3,3-difluoropiperidine-1-carboxylate]
- hERG @ 10 μM (%) (hERG channel): 19%
- CYP2D6 @ 10 μM (%) (CYP2D6): 37%

SMILES: O=C(OCc1ccc(F)cc1)N1CC[C@H](CNc2nccn3cnnc23)C(F)(F)C1 [Compound E1-1.4, R-4-fluorobenzyl 4-(([1,2,4]triazolo[4,3-a]pyrazin-8-ylamino)methyl)-3,3-difluoropiperidine-1-carboxylate]
- hERG @ 10 μM (%) (hERG channel): 11%
- CYP2D6 @ 10 μM (%) (CYP2D6): 19%

SMILES: Cc1ccc(COC(=O)N2CC[C@H](CNc3cncc4nncn34)C(F)(F)C2)cc1 [Compound E1-2.2, R-4-methylbenzyl 4-(([1,2,4]triazolo[4,3-a]pyrazin-5-ylamino)methyl)-3,3-difluoropiperidine-1-carboxylate]
- hERG @ 10 μM (%) (hERG channel): 32%
- CYP2D6 @ 10 μM (%) (CYP2D6): 18%

SMILES: Cc1ccc(COC(=O)N2CC[C@H](CNc3ncc4cn[nH]c4n3)C(F)(F)C2)cc1 [Compound E1-8.2, (+)-R-4-methylbenzyl-4-((1H-pyrazolo[3,4-d]pyrimidin-6-ylamino)methyl)-3,3-difluoropiperidine-1-carboxylate]
- hERG @ 10 μM (%) (hERG channel): 57%
- CYP2D6 @ 10 μM (%) (CYP2D6): 83%
- activity on electroconvulsive threshold (rats [1]; 0.5 and 2 mpk p.o., free base): modest proconvulsant activity
- activity on electroconvulsive threshold (rats [1]; 10 and 20 mpk p.o., free base): anticonvulsant activity

SMILES: Cc1ccc(COC(=O)N2CC[C@H](CNc3nc4ccccn4n3)C(F)(F)C2)cc1 [Compound E1-9.2, (+)-R-4-methylbenzyl 4-(([1,2,4]triazolo[1,5-a]pyridin-2-ylamino)methyl)-3,3-difluoropiperidine-1-carboxylate]
- hERG @ 10 μM (%) (hERG channel): 38%
- CYP2D6 @ 10 μM (%) (CYP2D6): 14%

SMILES: Cc1ccc(COC(=O)N2CC[C@H](CNc3cnccn3)C(F)(F)C2)cc1 [Compound E1-21.2, R-4-methylbenzyl 3,3-difluoro-4-((pyrazin-2-ylamino)methyl)piperidine-1-carboxylate]
- hERG @ 10 μM (%) (hERG channel): 27%
- CYP2D6 @ 10 μM (%) (CYP2D6): 97%

SMILES: Cc1ccc(COC(=O)N2CC[C@H](CNc3cnc(C)cn3)C(F)(F)C2)cc1 [Compound E1-21.26, R-4-methylbenzyl 3,3-difluoro-4-((5-methylpyrazin-2-ylamino)-methyl)piperidine-1-carboxylate]
- hERG @ 10 μM (%) (hERG channel): 39%
- CYP2D6 @ 10 μM (%) (CYP2D6): 32%
- activity on electroconvulsive threshold (rats [1]; 3 and 10 mpk p.o., mesylate salt): anticonvulsant activity
- change in latency to death (rats [2]): +31%
- change in number of deaths vs vehicle controls (rats [2]): −82%

SMILES: Cc1ccc(COC(=O)N2CC[C@@H](CNc3nccn4cnnc34)C(F)(F)C2)cc1 [Compound E2-1.2, (−)-S-4-methylbenzyl 4-(([1,2,4]triazolo[4,3-a]pyrazin-8-ylamino)methyl)-3,3-difluoropiperidine-1-carboxylate]
- hERG @ 10 μM (%) (hERG channel): 22%

SMILES: FC(F)(F)c1ccc(C(F)(F)CN2CCC(Nc3ncnc4[nH]ncc34)CC2)cc1 [LX-1, reference compound]
- CYP2D6 @ 10 μM (%) (CYP2D6): 93%

SMILES: CN1C(=O)CN=C(c2ccccc2)c2cc(Cl)ccc21 [diazepam, reference compound]
- activity on electroconvulsive threshold (rats [1]; 16 mpk p.o.): showed the expected anticonvulsant activity

SMILES: CN(C)CCCN1c2ccccc2CCc2ccccc21 [imipramine]
- antidepressant activity (immobility time) (mice; 32 mpk i.p. once 30 min before the test): showed the expected antidepressant activity
- antidepressant activity (immobility time) (mice; 64 mpk p.o. once 60 min before the test): showed the expected antidepressant activity
- antidepressant activity (immobility time) (mice; 128 mpk p.o. once 60 minutes before the test on Day 7): showed the expected antidepressant activity
- antidepressant activity (immobility time) (rats [3]; 32 mpk i.p. 3 times: 24 h, 4 h and 30 min before Session 2): showed the expected antidepressant activity
- antidepressant activity (immobility time) (rats [3]; 64 mpk p.o. 3 times: 24 h, 4 h and 60 min before Session 2): showed the expected antidepressant activity

SMILES: Cn1c(=O)c2[nH]cnc2n(C)c1=O [theophylline, reference compound]
- activity on electroconvulsive threshold (rats [1]; 128 mpk p.o.): showed the expected proconvulsant activity
